Laboratory results as given in patent publication US9763939B2, “Compositions and methods for treating mitochondrial diseases” (BIOVISTA, INC., priority 2012, dated 2017).

Columns and labels:
[1] = test system: human primary fibroblasts from patients suffering from LHON; assay: cells
Protocol: EXAMPLE. […] Briefly, primary human fibroblasts from patients suffering from Friedreich's ataxia and LHON are lesioned with 100 μM BSO (LHON fibroblasts) or 250 μM BSO (FRDA fibroblasts) respectively, for 48 hours. Apoptosis, toxicity and viability rate of cells are determined using the ApoTox-Glo-Kit (Promega): the reagent for assessing viability and toxicity is applied 1:5 into treatment medium and incubated for 30 min at 37° C. Next, fluorescence is measured at the following wavelength sets: 400EX/505EM (viability) and 485EX/520EM (toxicity). In case of apoptosis measurement the caspase reagent was added 1:2 and incubated at RT for 30 min, the caspase activity (apoptosis) was measured as luminescence
EXAMPLE. Evaluation of Tetracyclic Pyrazinoindoles, and Pharmaceutically Acceptable Salts Thereof. One or more tetracyclic pyrazinoindoles are applied 2 and 24 hours before BSO treatment and are present throughout the assay. An optional reference compound, such as idebenone may be included for comparison. BSO treated cells without any treatment (BSO group) as well as cells neither treated with BSO nor with any treatment (Vehicle Control (VC) group) serve as controls. Cells are assessed for apoptosis, toxicity and viability immediately after BSO lesion by means of the ApoTox-Glo-assay Kit (Promega). Three independent experiments in four technical replicates are performed for all groups as depicted in Table 1 (different tetracyclic pyrazinoindoles are labeled as Test Items (T.I.1-T.I.2) and an optional positive control Reference Item 1 (R.I.1)):
BSO generally reduces a cell's protection against oxidative damage. Cells harvested from FRDA and LHON patients generate higher levels of ROS than normal cells. Apoptosis, toxicity and viability rate of cells are determined using the ApoTox-Glo-Kit (Promega): the reagent for assessing viability and toxicity is applied 1:5 into treatment medium and incubated for 30 min at 37° C. Next, fluorescence is measured at the following wavelength sets: 400EX/505EM (viability) and 485EX/520EM (toxicity). In case of apoptosis measurement the caspase reagent is added 1:2 and incubated at RT for 30 min, the caspase activity (apoptosis) was measured as luminescence
Descriptive statistical analysis was performed. Data are presented as mean±standard error of mean (SEM) in percent of vehicle control, MPP+ lesion and BSO lesion, respectively. Differences between compound-treated groups and controls (vehicle, BSO) are evaluated by means of One-Way ANOVA.
EXAMPLE. […] One vial is thawed and administered 2 and 24 hours before BSO treatment, at concentrations 0.6 μM, 1.8 μM, 5.5 μM and 16 μM. Apoptosis, toxicity and viability rate of cells are determined using the ApoTox-Glo-Kit (Promega). Human primary fibroblasts from patients suffering from LHON are used. Three independent experiments in four technical replicates are performed for all groups. […] Statistical significance is indicated by NS=not significant p>0.1, *=p<0.05, **=p<0.01, ***=p<0.001 as determined by One-Way ANOVA. Data are shown as group mean+/−SEM.
EXAMPLE. Tetrindole is diluted in DMSO. One vial is thawed and administered 2 and 24 hours before BSO treatment, at concentrations 0.2 μM, 0.6 μM, 1.8 μM and 5.5 μM. Apoptosis, toxicity and viability rate of cells are determined using the ApoTox-Glo-Kit (Promega). Human primary fibroblasts from patients suffering from LHON are used. Three independent experiments in four technical replicates are performed for all groups. […] Statistical significance is indicated by NS=not significant p>0.1, *=p<0.05, **=p<0.01, ***=p<0.001 as determined by One-Way ANOVA. Data are shown as group mean+/−SEM.

[2] = Pharmacokinetics and distribution in the rat; type: in vivo
[3] = test system: reuptake of noradrenaline; assay: Effect on reuptake of noradrenaline
cholinergic system = assay: Effect on the cholinergic system
dopaminergic system = assay: Effect on the dopaminergic system
Absolute bioavailability = details: in vivo; species not given
[4] = rats, after oral and i.p. administration

Compound: Cc1ccc2c(c1)c1c3n2CCNC3CCC1 (stereo not shown) [pirlindole, 2,3,3a,4,5,6-hexahydro-8-methyl-1H-pyrazino[3,2,1-j,k]carbazole]
- statistically significant overall cytotoxicity over BSO control [1]: not observed at any dose
- apoptosis (caspase activity) ([1]; 16 μM, only significant after 24 h): reduced
- apoptosis compared to the BSO group ([1]; 5.5 dose): Statistically significant inferior apoptosis
- concentrations with protective effect or protective trend on cell viability ([1]; BSO lesion, pirlindole at both time points, tetrindole dose dependent protective trend): 16 µM
- viability at 16 µM ([1]; Homo sapiens, Fibroblast, 48 h, read-out: protective effect in relative cell viability): 122%
- fraction eliminated ([2]; after 48 h): 80-85%
- Tmax ([2]; in vivo, rat, oral, approximately): 2 to 6 h
- second phase of elimination ([2]; rat): 35 to 70 h
- first phase of elimination ([2]; rat, approximately): approximately 8 h
- blood brain barrier (BBB) penetration [2, 4]: good blood brain barrier (BBB) penetration
- tissue distribution [2, 4]: distributed in the lungs, liver, kidneys, spleen and various glands (but only transiently in bone marrow)
- fraction eliminated ([2]; within 24 h): 40-60%
- effect on the reuptake of noradrenaline [3]: inhibitory effect
- effect on the cholinergic system (cholinergic system): no effect
- effect on the dopaminergic system (dopaminergic system): no effect
- bioavailability (Absolute bioavailability): 20 to 30%
